# Experimental data as given in patent US20070021355A1, “Antidepressants or foods and beverage for antidepression” (priority 2003, published 2007).
# Key:
# Assay type in all cases: in vivo
# [1] = test system: reserpine-administered mice; test: Action on reserpine-induced temperature drop (body temperature); conditions: for Body temperature: male ddY mice, reserpine 2 mg/kg s.c., 100 mg/kg i.p. once per day for two days, mean ± standard error
# Experimental: (§1) Male ddY mice (4 weeks old) were subcutaneously administered reserpine (2 mg/kg) (Apoplon injection 1 mg, product of Daiichi Pharmaceutical Co., Ltd.). These mice were divided into two groups: one to which Compound 1 (100 mg/kg) was intraperitoneally administered once per day for two days (reserpine+Compound 1-administered group) and the other to which only a solvent was administered (reserpine+solvent-administered group). Reserpine and Compound 1 were administered after being dissolved in a physiological saline. The body temperature of the mice was measured 0.5, 1, 3 and 6 hours after the last administration. Separately, a solvent was administered to another group of mice without reserpine administration.
# [2] = test system: reserpine-administered mice; test: Action on reserpine-induced blepharoptosis; conditions: for Blepharoptosis score: score 1 completely opened to 5 completely closed, reserpine 2 mg/kg s.c., 100 mg/kg i.p. once per day for two days, mean ± standard error
# Experimental: as §1, with “The level” for “The body temperature”, “of blepharoptosis” for “of the mice”, “was scored” for “was measured”, “last administration (score 1: completely opened, score 2: ¼ closed, score 3: ½ closed, score 4: ¾ closed, and score 5: completely closed).” for “last administration.”
# [3] = test system: reserpine-administered mice; test: Action on reserpine-induced drop in the quantity of spontaneous motion
# Experimental: Male ddY mice (4 weeks old) were subcutaneously administered reserpine (2 mg/kg) (Apoplon injection 1 mg, product of Daiichi Pharmaceutical Co., Ltd.). These mice were divided into two groups: one to which Compound 1 (100 mg/kg) was intraperitoneally administered once per day for four days (reserpine+Compound 1-administered group) and the other to which only a solvent was administered (reserpine+solvent-administered group). Reserpine and Compound 1 were administered after being dissolved in a physiological saline. After the last administration, the mice were immediately put into breeding cages equipped with an infrared beam sensor (NS-AS01, Neuroscience, Inc.). After the last administration, the quantity of spontaneous motion in each 30-minute period was measured for 360 minutes with an infrared beam sensor device for measuring the quantity of spontaneous motion (AB system, Neuroscience, Inc.) and the measured values were summed up on a specific purpose computer via an interface (B060CT8H06, Neuroscience, Inc). Separately, another group of mice which was administered no reserpine was tested.
# [4] = test system: 5-HT and 5-HIAA in the hypothalamus of mice; test: Action on the amount of amine in the brain (5-HT and 5-HIAA in the hypothalamus); conditions: 100 mg/kg i.p.
# Experimental: Male ddY mice (4 weeks old) were intraperitoneally administered Compound 1 (100 mg/kg) (Compound 1-administered group) and their brains were excised 30 and 60 minutes after the administration to measure the amounts of serotonin (5-HT) and its metabolite 5-hydroxyindole-3-acetic acid (5-HIAA) in the hypothalamus. Compound 1 was administered after being dissolved in a physiological saline. Separately, another group of mice was administered only a solvent (solvent-administered group) and the amounts of 5-HT and 5-HIAA were measured in the same manner.
# [5] = test system: mice fed with a vitamin B deficient food; test: Action on depressive behavior induced by vitamin B deficient food (swimming patterns)
# Experimental: Male ddY mice (3 weeks old) were fed with a feed deficient in vitamin B1, vitamin B12 and folic acid for 8 days and then divided into two groups: one to which Compound 1 (100 mg/kg) was intraperitoneally administered once per day for 11 days (vitamin deficient food+Compound 1-administered group) and the other to which only a solvent was administered (vitamin deficient food+solvent-administered group). Compound 1 was administered after being dissolved in a physiological saline. Two hours after the last administration, the mice were put in a plastic cylindrical tub (diameter: 18 cm, height: 40 cm, water depth: 15 cm, water temperature: ca. 23° C.), followed by measurement of the time of their struggle, swimming and immobility in 10 minutes. Separately, another group of mice fed with a normal food was tested.
# [6] = 30 minute after last administration
# [7] = 60 minute after last administration
# [8] = 180 minute after last administration
# [9] = 360 minute after last administration
# [10] = male ddY mice, brains excised 30 and 60 minutes after administration, mean ± standard error
# [11] = vitamin B deficient food, 100 mg/kg i.p. once per day for 11 days, two hours after last administration, time in 10 minutes, mean ± standard error
smiles,measurement,setting,value
"NC(Cc1c([C@@H]2O[C@@H](CO)[C@H](O)[C@@H](O)[C@H]2O)[nH]c2ccccc12)C(=O)O (stereo partly drawn) [Compound 1, 2-amino-3-[2-(α-L-mannopyranosyl]indol-3-yl]propionic acid]",Effect on body temperature of reserpine-administered mice (in words),[1]; 100 mg/kg i.p.,significantly raised the body temperature
same,Body temperature,[1]; [6],***36.1 ± 0.2 °C
same,Body temperature,[1]; [7],** 35.4 ± 0.1 °C
same,Body temperature,[1]; [8],** 35.2 ± 0.3 °C
same,Body temperature,[1]; [9],** 34.9 ± 0.4 °C
same,Effect on reserpine-induced blepharoptosis (in words),[2]; 100 mg/kg i.p.,showed the action to improve the condition
same,Blepharoptosis score,[2]; [6],***3.0 ± 0.4
same,Blepharoptosis score,[2]; [7],** 3.1 ± 0.3
same,Blepharoptosis score,[2]; [8],** 3.3 ± 0.3
same,Blepharoptosis score,[2]; [9],** 3.3 ± 0.2
same,Effect on reserpine-induced drop in quantity of spontaneous motion (in words),[3]; 100 mg/kg i.p.,showed the action to increase the quantity of spontaneous motion
same,Quantity of spontaneous motion in 360 minutes,"[3]; reserpine 2 mg/kg s.c., 100 mg/kg i.p. once per day for four days, infrared beam sensor, mean ± standard error",2464.2 ± 594.6 count
same,Effect on contents of 5-HT and 5-HIAA in the hypothalamus (in words),[4],increased the contents of 5-HT and 5-HIAA
same,Content of 5-HIAA in the hypothalamus,[4]; [10],374.1 ± 26.7 ng/g wet weight
same,Content of 5-HT in the hypothalamus,[4]; [10],815.0 ± 39.1 ng/g wet weight
same,"Effect on struggle, swimming and immobility time of mice on vitamin B deficient food (in words)",[5]; 100 mg/kg i.p.,improved these actions
same,Swimming pattern: Immobility,[5]; [11],***35.6 ± 15.4 second
same,Swimming pattern: Struggle,[5]; [11],***2.4 ± 2.4 second
same,Swimming pattern: Swimming,[5]; [11],***562.0 ± 14.2 second
